Test results from ChEMBL document CHEMBL4308841, “Synthesis, in vitro antiproliferative activity, and kinase inhibitory effects of pyrazole-containing diarylureas and diarylamides” (Eur J Med Chem, 2018).

Key:
SK-OV-3 = test: Growth inhibition of human SKOV3 cells assessed as cell growth at 0.1 uM incubated for 48 hrs by sulforhodamine B assay relative to control; assay type: functional; settings: SK-OV-3, 48 h, read-out: Activity
SF-539 = test: Growth inhibition of human SF539 cells assessed as cell growth at 100 uM incubated for 48 hrs by sulforhodamine B assay relative to control; assay type: functional; settings: SF-539, 48 h, read-out: Activity
U-251 [1] = test: Growth inhibition of human U251 cells assessed as cell growth at 100 uM incubated for 48 hrs by sulforhodamine B assay relative to control; assay type: functional; settings: U-251, 48 h, read-out: Activity
NCI-H322M [2] = test: Growth inhibition of human NCI-H322M cells incubated for 48 hrs by sulforhodamine B assay; assay type: functional, cell-based
Hs-578T [3] = test: Growth inhibition of human Hs578T cells assessed as cell growth at 0.01 uM incubated for 48 hrs by sulforhodamine B assay relative to control; assay type: functional; settings: read-out: Activity
CAKI-1 [4] = test: Growth inhibition of human Caki1 cells assessed as cell growth at 0.1 uM incubated for 48 hrs by sulforhodamine B assay relative to control; assay type: functional; settings: CAKI-1, 48 h, read-out: Activity
NCI-H460 = test: Growth inhibition of human NCI-H460 cells assessed as cell growth at 100 uM incubated for 48 hrs by sulforhodamine B assay relative to control; assay type: functional; settings: NCI-H460, 48 h, read-out: Activity
786-0 = test: Growth inhibition of human 786-0 cells assessed as cell growth at 0.1 uM incubated for 48 hrs by sulforhodamine B assay relative to control; assay type: functional; settings: 786-0, 48 h, read-out: Activity
OVCAR-4 = test: Growth inhibition of human OVCAR4 cells assessed as cell growth at 0.01 uM incubated for 48 hrs by sulforhodamine B assay relative to control; assay type: functional; settings: OVCAR-4, 48 h, read-out: Activity
MDA-MB-435 = test: Growth inhibition of human MDA-MB-435 cells assessed as cell growth at 0.01 uM incubated for 48 hrs by sulforhodamine B assay relative to control; assay type: functional; settings: MDA-MB-435, 48 h, read-out: Activity
KM12 [5] = test: Growth inhibition of human KM12 cells assessed as cell growth at 0.1 uM incubated for 48 hrs by sulforhodamine B assay relative to control; assay type: functional; settings: KM12, 48 h, read-out: Activity
PC-3 = test: Growth inhibition of human PC3 cells assessed as cell growth at 100 uM incubated for 48 hrs by sulforhodamine B assay relative to control; assay type: functional; settings: PC-3, 48 h, read-out: Activity
NCI-H322M [6] = test: Growth inhibition of human NCI-H322M cells assessed as cell growth at 0.01 uM incubated for 48 hrs by sulforhodamine B assay relative to control; assay type: functional; settings: read-out: Activity
UACC-62 = test: Growth inhibition of human UACC62 cells assessed as cell growth at 0.01 uM incubated for 48 hrs by sulforhodamine B assay relative to control; assay type: functional; settings: UACC-62, 48 h, read-out: Activity
MOLT-4 = test: Growth inhibition of human MOLT4 cells assessed as cell growth at 100 uM incubated for 48 hrs by sulforhodamine B assay relative to control; assay type: functional; settings: MOLT-4, 48 h, read-out: Activity
MDA-MB-231 = test: Growth inhibition of human MDA-MB-231 cells assessed as cell growth at 100 uM incubated for 48 hrs by sulforhodamine B assay relative to control; assay type: functional; settings: MDA-MB-231, 48 h, read-out: Activity
SNB-75 = test: Growth inhibition of human SNB75 cells incubated for 48 hrs by sulforhodamine B assay; assay type: functional, cell-based; settings: SNB-75, 48 h
SK-MEL-2 = test: Growth inhibition of human SK-MEL-2 cells assessed as cell growth at 10 uM incubated for 48 hrs by sulforhodamine B assay relative to control; assay type: functional; settings: SK-MEL-2, 48 h, read-out: Activity
Malme-3M [7] = test: Growth inhibition of human MALME-3M cells assessed as cell growth at 0.1 uM incubated for 48 hrs by sulforhodamine B assay relative to control; assay type: functional; settings: read-out: Activity
Malme-3M [8] = test: Growth inhibition of human MALME-3M cells assessed as cell growth at 0.01 uM incubated for 48 hrs by sulforhodamine B assay relative to control; assay type: functional; settings: read-out: Activity
CAKI-1 [9] = test: Growth inhibition of human Caki1 cells assessed as cell growth at 0.01 uM incubated for 48 hrs by sulforhodamine B assay relative to control; assay type: functional; settings: CAKI-1, 48 h, read-out: Activity
NCI/ADR-RES = test: Growth inhibition of human NCI/ADR-RES cells assessed as cell growth at 1 uM incubated for 48 hrs by sulforhodamine B assay relative to control; assay type: functional; settings: read-out: Activity
Hs-578T [10] = test: Growth inhibition of human Hs578T cells assessed as cell growth at 1 uM incubated for 48 hrs by sulforhodamine B assay relative to control; assay type: functional; settings: read-out: Activity
HCT-15 = test: Growth inhibition of human HCT15 cells assessed as cell growth at 0.01 uM incubated for 48 hrs by sulforhodamine B assay relative to control; assay type: functional; settings: HCT-15, 48 h, read-out: Activity
U-251 [11] = test: Growth inhibition of human U251 cells incubated for 48 hrs by sulforhodamine B assay; assay type: functional, cell-based; settings: U-251, 48 h
UO-31 = test: Growth inhibition of human UO31 cells incubated for 48 hrs by sulforhodamine B assay; assay type: functional, cell-based; settings: UO-31, 48 h
HCC 2998 = test: Growth inhibition of human HCC2998 cells assessed as cell growth at 0.1 uM incubated for 48 hrs by sulforhodamine B assay relative to control; assay type: functional; settings: HCC 2998, 48 h, read-out: Activity
SF-295 = test: Growth inhibition of human SF295 cells assessed as cell growth at 0.01 uM incubated for 48 hrs by sulforhodamine B assay relative to control; assay type: functional; settings: SF-295, 48 h, read-out: Activity
KM12 [12] = test: Growth inhibition of human KM12 cells assessed as cell growth at 0.01 uM incubated for 48 hrs by sulforhodamine B assay relative to control; assay type: functional; settings: KM12, 48 h, read-out: Activity
HOP-62 = test: Growth inhibition of human HOP62 cells incubated for 48 hrs by sulforhodamine B assay; assay type: functional, cell-based; settings: HOP-62, 48 h
[13] = read-out: LC50 (the source's name)
[14] = read-out: pLC50 (the source's name) (converted)

Compound: COc1cc(Cl)cc(-c2nn(-c3cccc(NC(=O)Nc4cccc(C(F)(F)F)c4)c3)cc2-c2ccncc2)c1
- growth at 0.1 µM (SK-OV-3): 98%
- growth at 100 µM (SF-539): -72%
- growth at 100 µM (U-251 [1]): -100%
- GI50 (NCI-H322M [2]; read-out: GI50): 2.53 µM
- CC50 (NCI-H322M [2]; [13]): > 100 µM
- TGI (NCI-H322M [2]; read-out: TGI): 22.9 µM
- GI50 (NCI-H322M [2]; read-out: pGI50 (converted)): 2.63 µM
- CC50 (NCI-H322M [2]; [14]): > 100 µM
- TGI (NCI-H322M [2]; read-out: pTGI (converted)): 22.4 µM
- growth at 0.01 µM (Hs-578T [3]): 99%
- growth at 0.1 µM (CAKI-1 [4]): 104%
- growth at 100 µM (NCI-H460): -48%
- growth at 0.1 µM (786-0): 99%
- growth at 0.01 µM (OVCAR-4): 93%
- growth at 0.01 µM (MDA-MB-435): 100%
- growth at 0.1 µM (KM12 [5]): 95%
- growth at 100 µM (PC-3): -35%
- growth at 0.01 µM (NCI-H322M [6]): 99%
- growth at 0.01 µM (UACC-62): 96%
- growth at 100 µM (MOLT-4): -36%
- growth at 100 µM (MDA-MB-231): -43%
- GI50 (SNB-75; read-out: GI50): 1.76 µM
- CC50 (SNB-75; [13]): > 100 µM
- TGI (SNB-75; read-out: TGI): 13.9 µM
- GI50 (SNB-75; read-out: pGI50 (converted)): 1.78 µM
- CC50 (SNB-75; [14]): > 100 µM
- TGI (SNB-75; read-out: pTGI (converted)): 13.8 µM
- growth at 10 µM (SK-MEL-2): -36.7%
- growth at 0.1 µM (Malme-3M [7]): 50%
- growth at 0.01 µM (Malme-3M [8]): 95%
- growth at 0.01 µM (CAKI-1 [9]): 102%
- growth at 1 µM (NCI/ADR-RES): 65%
- growth at 1 µM (Hs-578T [10]): 90%
- growth at 0.01 µM (HCT-15): 92%
- IC50 (U-251 [11]): 0.88 µM
- GI50 (U-251 [11]; read-out: GI50): 0.679 µM
- CC50 (U-251 [11]; [13]): 89.4 µM
- TGI (U-251 [11]; read-out: TGI): 29.1 µM
- GI50 (U-251 [11]; read-out: pGI50 (converted)): 0.891 µM
- CC50 (U-251 [11]; [14]): 8.91 µM
- TGI (U-251 [11]; read-out: pTGI (converted)): 2.88 µM
- IC50 (UO-31): 1.03 µM
- GI50 (UO-31; read-out: GI50): 1.03 µM
- CC50 (UO-31; [13]): > 100 µM
- TGI (UO-31; read-out: TGI): 77.5 µM
- GI50 (UO-31; read-out: pGI50 (converted)): 1.02 µM
- CC50 (UO-31; [14]): > 100 µM
- TGI (UO-31; read-out: pTGI (converted)): 7.76 µM
- growth at 0.1 µM (HCC 2998): 98%
- growth at 0.01 µM (SF-295): 94%
- growth at 0.01 µM (KM12 [12]): 97%
- GI50 (HOP-62; read-out: GI50): 2.51 µM
- CC50 (HOP-62; [13]): > 100 µM
- TGI (HOP-62; read-out: TGI): 13.1 µM
- GI50 (HOP-62; read-out: pGI50 (converted)): 2.82 µM
- CC50 (HOP-62; [14]): > 100 µM
- TGI (HOP-62; read-out: pTGI (converted)): 13.2 µM
